According to patent US20050208058A1, “Compositions and methods for modulating cell division” (priority 2003, published 2005):
d = 2'-deoxy (DNA)

Experiments:
Format in all cases: cell-based, human
[1] = system: RPE1 cells; assay: FACS of nocodazole shift with kinase inhibitors and siGCP3 (p38 dependence); conditions: FIG. 7
Experimental: (§1) For flow cytometry (i.e., fluorescence-activated cell sorter or FACS) experiments, siRNAs were delivered to cells as described above, and were incubated for 50-70 hours. To synchronize cells, nocodazole was added to the cells to a concentration of 5 μg/mL for 12 hours. Cells were stained with propidium iodide and analyzed by flow cytometry (FACSCAN; Becton Dickinson) using FLOJO® software (Tree Star, Inc., Ashland, Oreg.).
The following experiment was performed to test if p38, an upstream component of p53 signaling, is required for the centrosomal cell cycle arrest phenotype described herein. The following inhibitors were added to RPE1 cells 1 hour prior to siRNA treatment at the indicated concentrations: SB203580 (p38 inhibitor) 40 μM, SB202190 (p38 inhibitor) 10 μM, and PD98059 (MAPK inhibitor) 50 μM. All inhibitors were obtained from Calbiochem and dissolved in DMSO. siRNA treatment and FACS analysis was performed as described in Example 2.

[2] = system: RPE cells; assay: Flow cytometry (FACS) of nocodazole-induced shift from G1 to G2/M peak after siRNA treatment; conditions: siRNA 50-70 hours, nocodazole 5 μg/mL 12 hours; FIG. 3A, FIG. 8
Experimental: as §1
In another approach to evaluating the effect requirement for centrosomal gene products, fluorescence assisted cell sorting (flow cytometry or FACS) analysis was performed as described in Gromley et al., J. Cell Biol., 161:535-545 (2003). Briefly, cells were treated with indicated siRNA for at least 50-70 hours, unless otherwise indicated. Cells were synchronized by adding nocodazole to 5 μg/mL for 12 hours prior to cell collection. Cells were collected, fixed in methanol, stained with propidium iodide, and analyzed by flow cytometry (FACSCAN®;Becton Dickinson) using FLOJO® software (Tree Star, Inc.).
FIG. 3A is a graph showing the effects of depleting the indicated centrosomal gene products by siRNA treatment. The left side of the graph depicts the FACS results for treated cells before the addition of nocodazole (-noc). The major fluorescence peak in (-noc) cells is the G1 peak, (i.e., lower DNA fluorescence). The right side of the graph depicts the results for cells after nocodazole treatment (+noc). […] This may be due to inefficient silencing caused by the siRNAs used.
The ability of a number of centrosomal genes to inhibit cell cycling of RPE1 cells was tested by treating cells with siRNAs and performing FACS analysis as described in Example 2.

[3] = system: RPE cells; assay: BrDU incorporation after siRNA treatment and nocodazole synchronization; conditions: relative to control cells (siRNA to lamin), after nocodazole release; FIG. 2A
Experimental: To further study the effects of silencing centrosomal genes, the following cell cycle experiments were performed using RPE cells. In immunofluorescence experiments, cells were delivered by OLIGOFECTAMINE in a media solution containing between 1-100 nanomolar concentration of siRNAs. After 4 hours of incubation with lipofectamine, cells were washed, and cell cycle progression was assayed by (i) treating cells with 5-Bromo-2′-deoxyuridine (BrDU from Sigma, St Louis, Mo.) for 24 hours and staining for BrDU or (ii) staining cells with antibody to Ki-67 (BD Biosciences) according to manufacturer's instructions. BrDU treatment and staining were performed as follows: after 50-70 hours incubation with siRNA, BrDU was added to cells at a final concentration of 5 μg/ml. Cells were fixed in −20° C. methanol and then treated with 2N HCL at 22° C. for 30 minutes, incubated with 1:500 mouse anti-BrdU antibody (Becton Dickinson, Palo Alto, Calif.), and labeled with 1:1,000 goat FITC-mouse antibody (Molecular Probes, Inc.). Cells were also treated with 4′,6-diamidino-2-phenylindole (DAPI) (Molecular Probes) according to the manufacturer's instructions. Cells were prepared, imaged, and the resulting images were deconvolved as described in Example 1.
Upon release from nocodazole treatment, proliferating cells typically resume cell cycle progression. Chromosomal DNA in the cells was imaged using DAPI (faint ghost-like staining) and/or BrDU (brighter staining). Although DAPI can be used to visualize DNA at any stage of the cell cycle, BrDU is only incorporated into newly synthesized DNA only during S-phase. Thus, BrDU incorporation can be used as a marker of cells that progress through at least one S-phase of the cell cycle. Control cells in this experiment were treated with siRNA to lamin.

[4] = system: RPE cells; assay: CFDA-SE labeling cell division assay; conditions: during the 72 hours following siRNA treatment; FIG. 4
Source text: RPE cells were transfected with siRNA directed to pericentrin A/B or lamin (control) as described in Example 2. Immediately prior to siRNA transfection cells were labeled with a succinimidyl ester of carboxyfluorescein diacetate (CFDA-SE from Molecular Probes, Eugene, Oreg.) according to manufacturers instructions. CFDA-SE is a fluorescent marker that spontaneously and irreversibly couples to free amines on intracellular and cell-surface proteins. When a cells divides, CFDA-SE labeling is inherited equally by daughter cells, which are therefore half as fluorescent as the parent cell. Cells were prepared for and analyzed by fluorescence microscopy as described in Example 1.

[5] = system: cdc14A; assay: Anti-cdc14A immunofluorescence intensity in siRNA-treated cells; conditions: 25 cells; FIG. 1C
Experimental: To test the ability of siRNAs to silence centrosomal gene products, cells were treated with siRNAs for 24 hours. Cells were diploid, telomerase-immortalized human retinal pigment epithelial (RPE1) cells (hTERT-RPE1s from Clontech, Palo Alto, Calif.) (see Morales et al., Nat Genet, 21:115-118, 1999). siRNAs directed to δ-tubulin (SEQ ID NO:2), γ-tubulin (SEQ ID NO:4), GCP2 (SEQ ID NO:5), GCP3(SEQ ID NO:6), cNAP1 (SEQ ID NO:8), PCM1 (SEQ ID NO:9), ninein (SEQ ID NO:21), NEK2a (SEQ ID NO:10), centrin2 (SEQ ID NO:12), CDC14A (SEQ ID NO:13), gapcena (SEQ ID NO:15), nemo (SEQ ID NO:16), pericentrin (SEQ ID NO:23), lamin A/C (CUGGACUUCCAGAAGAACA, SEQ ID NO: 24) zyxin (UGUGGCUGUCAACGAACUC, SEQ ID NO:25), and p53 (GGACAAGGGUUGGGCUGGG, SEQ ID NO:26) were made as complementary single stranded 19-mer siRNAs with 3′ dTdT overhangs (Dharmacon Inc., Lafayette, Colo.), deprotected, annealed and delivered into cells using OLIGOFECTAMINE® from Invitrogen (Carlsbad, Calif.). Nucleotides were delivered in media containing up to 100 nanomolar concentrations of siRNAs. […]
FIG. 1C is a histogram quantifying anti-cdc14A immunofluorescence observed in 25 cells treated with (i) siRNA to CDC14 (siCDC14) or (ii) control siLamin.

[6] = system: δ-tubulin; assay: Immunofluorescence of centrosomal δ-tubulin after siRNA treatment; conditions: vs lamin control; FIG. 1D
Experimental: To test the ability of siRNAs to silence centrosomal gene products, cells were treated with siRNAs for 24 hours. Cells were diploid, telomerase-immortalized human retinal pigment epithelial (RPE1) cells (hTERT-RPE1s from Clontech, Palo Alto, Calif.) (see Morales et al., Nat Genet, 21:115-118, 1999). siRNAs directed to δ-tubulin (SEQ ID NO:2), γ-tubulin (SEQ ID NO:4), GCP2 (SEQ ID NO:5), GCP3(SEQ ID NO:6), cNAP1 (SEQ ID NO:8), PCM1 (SEQ ID NO:9), ninein (SEQ ID NO:21), NEK2a (SEQ ID NO:10), centrin2 (SEQ ID NO:12), CDC14A (SEQ ID NO:13), gapcena (SEQ ID NO:15), nemo (SEQ ID NO:16), pericentrin (SEQ ID NO:23), lamin A/C (CUGGACUUCCAGAAGAACA, SEQ ID NO: 24) zyxin (UGUGGCUGUCAACGAACUC, SEQ ID NO:25), and p53 (GGACAAGGGUUGGGCUGGG, SEQ ID NO:26) were made as complementary single stranded 19-mer siRNAs with 3′ dTdT overhangs (Dharmacon Inc., Lafayette, Colo.), deprotected, annealed and delivered into cells using OLIGOFECTAMINE® from Invitrogen (Carlsbad, Calif.). Nucleotides were delivered in media containing up to 100 nanomolar concentrations of siRNAs.
Commercial antibodies to the following proteins were used in this study: lamin A/C (Cell Signaling Technology, Beverly, Mass.), δ-, ε-, or γ-tubulin (Sigma-Aldrich, St. Louis, Mo.), zyxin (Santa Cruz Biotechnology, Santa Cruz, Calif.), Nek2A (Zymed, South San Francisco, Calif.), p53 (Calbiochem, San Diego, Calif.). […]

COc1cccc(-c2cc(=O)c3ccccc3o2)c1N [map kinase inhibitor, PD98059]
effect of inhibitor alone on nocodazole-induced shift from G1 to G2/M peak ([1]; SB203580 40 μM, SB202190 10 μM, PD98059 50 μM): did not inhibit the nocodazole-induced shift | effect of inhibitor on siGCP3-induced cell cycle arrest ([1]; inhibitor added 1 hour prior to siGCP3, SB203580 40 μM, SB202190 10 μM, PD98059 50 μM): did not affect siGCP3's ability to cause cell cycle arrest

AAGAGAAGCAGAUGCUGCA (siRNA; RNA, 3' dTdT, backbone not given here) [siGCP3, siRNA directed to GCP3]
effect of siRNA on nocodazole-induced shift from G1 to G2/M peak ([1]; siRNA alone): inhibited this shift | inhibition of nocodazole-induced shift from G1 peak to G2/M peak [2]: prevented nocodazole-induced shift

ACUUCGCCUGGUCCAACUU (siRNA; RNA, 3' dTdT, backbone not given here) [GCP-5, siRNA directed to GCP5]
inhibition of nocodazole-induced shift from G1 peak to G2/M peak [2]: prevented nocodazole-induced shift

AGGGAACCAAGGAAAGGCA (siRNA; RNA, 3' dTdT, backbone not given here) [NEK, siRNA directed to NEK2]
incorporation of BrDU into chromosomal material [3]: less pronounced | inhibition of nocodazole-induced shift from G1 peak to G2/M peak [2]: did not cause a pronounced inhibition of the shift

CUGGACUUCCAGAAGAACA (siRNA; RNA, 3' dTdT, backbone not given here) [lamin, control siRNA directed to lamin A/C, reference compound]
cells that never divided [4]: ~7%

GAGCAAAAGCAGGAGAUCC (siRNA; RNA, 3' dTdT, backbone not given here) [centrin, siRNA directed to centrin2]
incorporation of BrDU into chromosomal material [3]: clearly inhibited incorporation of BrDU

GCACAGUAAAUACCCACUA (siRNA; RNA, 3' dTdT, backbone not given here) [siCDC14, siRNA directed to CDC14A]
cells displaying lower anti-cdc14A fluorescence intensity than the lowest control (siLamin treated) cell [5]: 68%

GCAGCUGAGCUGAAGGAGA (siRNA; RNA, 3' dTdT, backbone not given here) [pericentrin A/B, siRNA directed to both pericentrin A and pericentrin B]
cells that never divided [4]: 40%

GGUUCUGGAAACAACUGGG (siRNA; RNA, 3' dTdT, backbone not given here) [siδ-tubulin, siRNA directed to δ-tubulin]
centrosomal δ-tubulin staining [6]: reduced the number and/or fluorescence intensity of centrosomal staining

GUCCCCCAAACAGAGAAAC (siRNA; RNA, 3' dTdT, backbone not given here) [PCM-1, siRNA directed to PCM1]
inhibition of nocodazole-induced shift from G1 peak to G2/M peak [2]: prevented nocodazole-induced shift

UAUGAGCAUUGAGGCAGAG (siRNA; RNA, 3' dTdT, backbone not given here) [ninein]
inhibition of nocodazole-induced shift from G1 peak to G2/M peak [2]: did not cause a pronounced inhibition of the shift

UCUAUCCGAAAGCCCAGUC (siRNA; RNA, 3' dTdT, backbone not given here) [CNAP, siRNA directed to cNAP1]
incorporation of BrDU into chromosomal material [3]: clearly inhibited incorporation of BrDU | inhibition of nocodazole-induced shift from G1 peak to G2/M peak [2]: prevented nocodazole-induced shift
